The results in this text go back to US20230365673A1, “MEANS FOR REDUCING RADIO- AND CHEMOTHERAPY RESISTANCE AND ADVERSE EFFECTS” (JOHANN WOLFGANG GOETHE-UNIVERSITÄT FRANKFURT AM MAIN, priority 2020, published 2023).

Assay [1] concerns human intestinal fibroblasts. The assay can be described thus: SA-β-gal staining of irradiated (3×2 Gy) fibroblasts pre-conditioned with IL-1RA low organoid medium. The assay is classed as cell-based. The settings on record: IL-1RA low conditioned medium, anakinra 20 μg/mL, 72 h. From the text: (A and B) Quantification of IL-1 and IL-1RA baseline serum levels in non-pCR (n=25) and pCR (n=7) patients before CRT. Data are mean±SD. ** p<0.01 by t-test. (C) IL-1RA serum level association with two SNPs: rs4251961 (T/C) and rs579543 (A/G) using DNA isolated from patients (n=31) pre-CRT peripheral blood mononuclear cells. Data are mean±SD. ** p=0.0052 by t-test. (D) Kaplan-Meier DFS curve of patients with high (n=37) and low (n=37) IL-1RN expression score (median split) based on the RNA sequencing data of pre-CRT biopsies. * p<0.05 by Log-rank (Mantel-Cox) test. […] (H) Paired analysis of sirius red staining of non-pCR patients (n=11) pre versus post-CRT. Scale bars=300 μm. (I) Paired quantification of p21 immunohistochemistry staining of non-pCR patients (n=10) pre versus post CRT. (J) Correlation analysis of pre-CRT serum IL-1RA levels with ratio of p21 induction (post/pre-CRT p21 RNA expression level) (n=10 non pCR patients). * p<0.05 by Spearman r correlation test. […] (M) Nitrite concentration determined by Griess assay in supernatants from WT, IL-1RA high & IL-1RA low conditioned media treated human fibroblasts for 72 h (n=13 independent wells per group). […] (N) Nitrite concentration determined by Griess assay in supernatants from untreated and IL-1α (1 μg/mL) stimulated human fibroblasts for 72 h (n=32 independent wells per group representing 3 independent experiments). […]

In assay [2] the test system is colon fibroblasts. The assay can be described thus: Oxidative DNA damage by 8-OHdG immunofluorescence in fibroblasts. The assay is classed as cell-based, mouse. To be noted: recombinant IL-1α 1 μg/mL, 72 hours. How it is done:
(A) Schematic illustration of APTKA organoids supernatant collection and treatment of colon fibroblasts from unchallenged wildtype C57BL/6 mice for 12 h followed by 3×2 Gy irradiation. Microscopic, proteomic & transcriptomic analysis were performed 72 h post first irradiation. (B) Microscopic captures of non-irradiated wildtype (WT) and APTKA conditioned fibroblasts. Remaining captures belong to irradiated fibroblasts: WT, IL-1α (1 μg/mL) stimulated WT, and APTKA conditioned media minus or plus anakinra (20 μg/mL) treated fibroblasts. Scale bars=200 μm. (C) Mass spectrometric analysis of matrisome profiles of 3×2 Gy irradiated (n=8) and non-irradiated (n=8) APTKA conditioned fibroblasts. […] (G) Immunoblot analysis of untreated and irradiated APTKA conditioned fibroblasts. Representative results from one experiment which has been independently repeated 2 times. (H) SA-ß gal staining of untreated and irradiated APTKA fibroblasts. Scale bars=100 μm. (I and J) p21 and pH2AX immunofluorescent staining of untreated and irradiated APTKA fibroblasts. Scale bars=[…]. Data are mean±SD. ** […] and *** p<0.001 by t-test. (K) Nitrite concentration determined by Griess assay in conditioned media from WT, APTK media, APTKA media, IL-1α (1 μg/mL) stimulated and APTKA plus anakinra (20 μg/mL) treated fibroblasts for 72 h (n=10 independent wells per group). […]

For “anakinra: Kineret®, an interleukin-1 receptor antagonist”, the “senescence induction upon irradiation (SA-β-gal staining)” value in assay [1] is “could be blocked by anakinra”.

As to “recombinant IL-1α: recombinant cytokine used to stimulate fibroblasts”, the “oxidative DNA damage (8-OHdG immunofluorescence)” value in assay [2] is reported as “increase in oxidative DNA damage”.
